Assay [1] deals with SARS-CoV-2 spike protein, S1 subunit. The class given is binding. The note with it: pH 7.4.
In assay [2] the test system is SARS-CoV-2 RBD. The note with it: cited from earlier work.

Consider ACE2, for which the “SPR angle shift of ACE2/spike protein binding” value in assay [1] was found to be 0.147±0.009 degrees.

On to “residues 21–43 of the human ACE2 α 1-helix”, for which, in assay [2], the “affinity compared with full-length ACE2 binding to RBD” value was “comparable to that of the full-length ACE2 binding to RBD”.

The values are drawn from article PMC9797021 (ACS applied bio materials, 2022).
